Experiments:
Assay in all cases: drug sensitivity score (DSS) from 5-point dose-response viability curve (DSS (area-under-curve based score)); higher = more sensitive (stronger growth inhibition or killing); extreme values may be limits of the assay
Details in all cases: exposure time: 72 h; concentration range: 5 concentrations over 10,000-fold range
[1] = system: OVCAR4
Procedure, shortened: (§1)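 Drugs in DMSO or water were acoustically dispensed (Echo 550) into 384-well plates at five concentrations across a 10,000-fold range. Ovarian cancer and normal ovarian cells (1,500 per well) were then added, incubated for 3 days at 37°C with 5% CO2, and read for viability by CellTiter-Glo luminescence on a PHERAstar FS. From these readings, Breeze software derived a drug sensitivity score per cell line and drug, with higher values meaning more sensitive and zero meaning no response.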

[2] = system: COV318
Procedure, shortened: as §1

[3] = system: OVCAR8
Procedure, shortened: as §1

[4] = system: Ovsaho
Procedure, shortened: as §1

[5] = system: HOSE2C
Procedure, shortened: as §1

[6] = system: Kuramochi
Procedure, shortened: as §1

[7] = system: OVCAR5
Procedure, shortened: as §1

[8] = system: CAOV3
Procedure, shortened: as §1

[9] = system: HOSE1C
Procedure, shortened: as §1

[10] = system: JHOS2
Procedure, shortened: as §1

[11] = system: OV90
Procedure, shortened: as §1

[12] = system: COV362
Procedure, shortened: as §1

Row | Structure (SMILES) | drug sensitivity score [1] | drug sensitivity score [2] | drug sensitivity score [3] | drug sensitivity score [4] | drug sensitivity score [5] | drug sensitivity score [6] | drug sensitivity score [7] | drug sensitivity score [8] | drug sensitivity score [9] | drug sensitivity score [10] | drug sensitivity score [11] | drug sensitivity score [12]
1 | Cc1c(Cn2c(C)nc3c(C(=O)O)cc(N4CCOCC4)cc32)cccc1C(F)(F)F | 0 | 0 | 0 | 3.8 | 0 | 3.7 | 0 | 0 | 1.2 | 0 | 0 | 0
2 | Cc1[nH]c2ccccc2c1CCNCc1ccc(/C=C/C(=O)NO)cc1 [Panobinostat] | 13.5 | 10.6 | 21.4 | 10.8 | 21.1 | 15.3 | 23.3 | 14.5 | 24.1 | 13.1 | 18.2 | 5.8
3 | CCCCCOC(=O)Nc1nc(=O)n([C@@H]2O[C@H](C)[C@@H](O)[C@H]2O)cc1F [Capecitabine] | 0 | 0 | 0 | 0 | 0 | 0 | 0.3 | 0.2 | 0.3 | 0 | 0 | 0
4 | C[C@]1(O)C[C@@H](c2nc(-c3ccc4ccc(-c5ccccc5)nc4c3)c3c(N)nccn32)C1 [Linsitinib] | 0 | 0 | 0.3 | 0 | 2 | 0 | 2.7 | 1.4 | 0.7 | 0 | 0.9 | 0
5 | CC(C)C[C@H](NC(=O)[C@H](Cc1ccccc1)NC(=O)c1cnccn1)B(O)O [Bortezomib] | 24.6 | 28.3 | 23 | 17.8 | 24.4 | 9.3 | 23.9 | 26.4 | 27.4 | 24.5 | 22.8 | 24.7
6 | COCCOc1cnc2ccn([C@H](C)c3nnc4c(F)cc(-c5cnn(C)c5)cn34)c(=O)c2c1 [AMG-337] | 0 | 0 | 0 | 0 | 0 | 0 | 0 | 0 | 0 | 0 | 0 | 0
7 | COc1cccc(OCCCN)c1-c1cc(Nc2cnc(C#N)cn2)n[nH]1 [Prexasertib] | 21.8 | 22.9 | 30.1 | 16.1 | 36.7 | 19.8 | 25 | 24.8 | 40.9 | 22.4 | 16.7 | 16.8
8 | CC(C)(C)c1cnc(CSc2cnc(NC(=O)C3CCNCC3)s2)o1 [SNS-032] | 13.9 | 11 | 20 | 18.9 | 12.1 | 15.8 | 18.5 | 16.2 | 21.2 | 23.3 | 16.1 | 13.9
9 | CN(C)CCOc1ccc(/C(=C(/CCCl)c2ccccc2)c2ccccc2)cc1 [Toremifene] | 2 | 2.3 | 2.9 | 3.5 | 1.6 | 3.5 | 4.9 | 1.8 | 3.5 | 2 | 5.3 | 0.6
10 | O=C(CCCCCCC(=O)Nc1ccccc1)NO [Vorinostat] | 4.7 | 4.3 | 9.7 | 2.7 | 10.7 | 4.7 | 10.8 | 8.6 | 15.9 | 5.3 | 8 | 3.2
11 | COCCNCc1ccc(-c2cc3nccc(Oc4ccc(NC(=O)C5(C(=O)Nc6ccc(F)cc6)CC5)cc4F)c3s2)nc1 [Sitravatinib] | 0.7 | 0.5 | 0.5 | 0 | 3.3 | 2.5 | 4.5 | 1.9 | 2.6 | 1.2 | 1.6 | 2.3
12 | COc1cc2c(cc1OC(C)C)[C@H](c1ccc(Cl)cc1)N(c1ccc(N(C)C[C@H]3CC[C@H](N4CCN(C)C(=O)C4)CC3)cc1)C(=O)C2 [NVP-CGM097] | 5 | 5.9 | 5.7 | 5.8 | 16.5 | 5.5 | 7.2 | 3.3 | 11.4 | 6.4 | 5.4 | 4.6
13 | Nc1cccc2c1C(=O)N(C1CCC(=O)NC1=O)C2=O (configuration not stated) [Pomalidomide] | 0 | 0 | 0 | 0 | 0 | 0 | 0 | 0 | 0 | 0 | 0 | 0
14 | N#CC1(c2ccc(NC(=O)c3cccnc3NCc3ccncc3)cc2)CCCC1 [Apatinib] | 0 | 0 | 0 | 0.3 | 0 | 0 | 0.5 | 0 | 0 | 0 | 0 | 0
15 | CCN(CC)CCN(Cc1ccc(-c2ccc(C(F)(F)F)cc2)cc1)C(=O)Cn1c(SCc2ccc(F)cc2)nc(=O)c2c1CCC2 [Darapladib] | 0 | 0.2 | 0 | 2 | 0 | 1 | 0.9 | 0 | 0 | 0.3 | 0.6 | 2.4
16 | CC[C@H](C)C(=O)O[C@H]1C[C@@H](C)C=C2C=C[C@H](C)[C@H](CC[C@@H]3C[C@@H](O)CC(=O)O3)[C@H]21 [Lovastatin] | 0.2 | 0 | 1.7 | 0.7 | 7.8 | 0.3 | 0.8 | 0 | 7.5 | 0 | 1.3 | 0.1

From the supplement of paper PMC11616607
